Data taken from publication PMC9804871, “Effect of Opicapone on Levodopa Pharmacokinetics in Patients with Fluctuating Parkinson's Disease” (Movement Disorders, 2022).
Marks after values point to notes of the source that are not given here.

Columns and labels:
Type in all cases: in vivo, human (patients with PD)
[1] = 12-hour levodopa plasma pharmacokinetics; settings: for Levodopa AUCτ / Levodopa Cavg / Levodopa Cmax / Levodopa Cmin: mean; for Levodopa tmax: median; for Levodopa Cmax (over all intakes of the 12-hour pharmacokinetics; Cmax,max) / Levodopa Cmin (over all intakes, excluding first predose; Cmin,min): mean (%CV); for Levodopa Cmin,min, geometric mean (90% CI): N 11; for Levodopa Cmax,max, geometric mean (90% CI): N 12
Method: The study design is illustrated in Figure 1.
Pharmacokinetic evaluation occurred over 12 hours with sampling every 30 minutes, except for the last sample following each LD dose in the opicapone plus four LD intake regimen, which was sampled at 1 hour. The main pharmacokinetics parameters assessed included maximum observed plasma concentration (Cmax), time to achieve peak plasma levels (tmax), minimum observed plasma concentration (Cmin), plasma elimination half‐life (t1/2), area under the curve (AUC), and fluctuation index (FI; as an expression of peak‐to‐trough fluctuation, Cmax, and Cmin, relative to average concentration [Cavg]). The pharmacokinetics of the LD metabolite 3‐O‐methyldopa (3‐OMD) was also evaluated.
Descriptive statistics were used to summarize the pharmacokinetics parameters for LD and 3‐OMD for each of the three regimens. […] No formal comparison was performed between opicapone regimens.

[2] = 12-hour 3-O-methyldopa plasma pharmacokinetics; settings: for 3-O-methyldopa Cmax,max, Geometric Mean (90% CI): N 12; for 3-O-methyldopa tmax: median; for 3-O-methyldopa Cmax,max: mean (%CV)
Method: Following screening, all patients received a daily LD/CD dose of 500/125 mg for 2 weeks, administered as LD/CD 100/25 mg five times a day (five‐intake LD/CD 500/125 mg), fixed every 3 hours (from 8 AM to 8 PM) at pharmacokinetic day. Patients were then randomly assigned (1:1) to receive two different regimens of opicapone 50 mg plus LD/CD (400/100 mg daily) for an additional 2 weeks. • Patients on opicapone regimen 1 received LD/CD 100/25 mg four times a day plus opicapone 50 mg at least 1 hour after the last administration of LD/CD each day (four‐intake LD/CD 400/100 mg plus opicapone 50 mg), fixed every 4 hours (from 8 AM to 8 PM) at pharmacokinetic day. • Patients on opicapone regimen 2 received alternating LD/CD 100/25 mg and 50/12.5 mg doses (ie, 100/25 mg, 50/12.5 mg, 100/25 mg, 50/12.5 mg, and 100/25 mg) five times a day plus opicapone 50 mg at least 1 hour after the last administration of LD/CD each day (five‐intake LD/CD 400/100 mg plus opicapone 50 mg), fixed every 3 hours (from 8 AM to 8 PM) at pharmacokinetic day.
The primary objective of the study was to evaluate the pharmacokinetics of LD in the two opicapone LD/CD 400/100 mg dosing regimens (four and five intakes) when compared with the five‐intake LD/CD 500/125 mg regimen without opicapone. The pharmacokinetics study endpoint was set after 2 weeks of each treatment regimen (ie, at the end of the initial five‐intake LD/CD 500/125 mg treatment regimen and at the end of the LD/CD 400/100 mg plus opicapone treatment). Pharmacokinetic evaluation occurred over 12 hours with sampling every 30 minutes, except for the last sample following each LD dose in the opicapone plus four LD intake regimen, which was sampled at 1 hour. The main pharmacokinetics parameters assessed included maximum observed plasma concentration (Cmax), time to achieve peak plasma levels (tmax), minimum observed plasma concentration (Cmin), plasma elimination half‐life (t1/2), area under the curve (AUC), and fluctuation index (FI; as an expression of peak‐to‐trough fluctuation, Cmax, and Cmin, relative to average concentration [Cavg]). The pharmacokinetics of the LD metabolite 3‐O‐methyldopa (3‐OMD) was also evaluated.
Descriptive statistics were used to summarize the pharmacokinetics parameters for LD and 3‐OMD for each of the three regimens. […] No formal comparison was performed between opicapone regimens. Pharmacokinetic parameters were evaluated within the same population for each LD/CD 400/100 mg plus opicapone treatment regimen compared with the LD/CD 500/125 mg without opicapone regimen. Geometric mean ratios and corresponding 90% confidence intervals (CIs) for the LD and 3‐OMD log‐transformed pharmacokinetics parameters (AUCtotal, Cmax,max and Cmin,min [only for LD]) were calculated using a paired t test for the comparison between the five‐intake LD/CD 500/125 mg treatment without opicapone and each of the two LD/CD 400/100 mg plus opicapone regimens; only data from completers (patients with data for both regimens) were used for this analysis.

[3] = tested on: patients with PD and end-of-dose motor fluctuations; experiment: 24-hour patient Hauser on/off diary; settings: for ON-time With Non-Troublesome Dyskinesia / ON-time With Troublesome Dyskinesia / ON-time Without Dyskinesia / Total OFF-time / Total ON-time: 24-hour Hauser diary, mean (SD); for 24-h total off time, geometric mean (90% CI) / 24-h total on time, geometric mean (90% CI): N 12
Method: Clinical and safety/tolerability outcomes were also assessed as exploratory secondary outcomes. Clinical outcomes included on and off time assessed using patient‐rated tools. The timing of on and off states was registered (in real time) by the investigators during the matching 12‐hour pharmacokinetic evaluation (as such applied on pharmacokinetics days only), and patients also completed 24‐hour patient Hauser on/off diary charts[21] (in 30‐minute blocks) during the 3 days before each pharmacokinetic visit. Diary states of interest were off time and on time, including on without dyskinesia, on with nontroublesome dyskinesia, and on with troublesome dyskinesia. In addition, the Patient Global Impression of Change (PGI‐C) of opicapone 50 mg was evaluated at the end of the LD/CD 400/100 mg plus opicapone treatment compared with before the start of opicapone treatment.[22] Safety and tolerability endpoints included treatment‐emergent adverse events (TEAEs), serious TEAEs, and TEAEs leading to discontinuation.
Clinical outcomes are also presented descriptively. A paired t test was used for the comparison of 12‐hour off and on time, 24‐hour off and on time, time to on, and time to best on between each opicapone‐containing regimen and the regimen without opicapone. Estimates of mean difference and corresponding 90% CIs were reported for all main variables.

[4] = five-intake LD/CD 500/125 mg vs five-intake LD/CD 400/100 mg plus opicapone 50 mg, first LD/CD intake
[5] = five-intake LD/CD 500/125 mg vs five-intake LD/CD 400/100 mg plus opicapone 50 mg, fourth LD/CD intake
[6] = five-intake LD/CD 500/125 mg vs five-intake LD/CD 400/100 mg plus opicapone 50 mg
[7] = five-intake LD/CD 500/125 mg vs five-intake LD/CD 400/100 mg plus opicapone 50 mg, second LD/CD intake
[8] = five-intake LD/CD 500/125 mg vs five-intake LD/CD 400/100 mg plus opicapone 50 mg, third LD/CD intake
[9] = five-intake LD/CD 500/125 mg vs four-intake LD/CD 400/100 mg plus opicapone 50 mg, first LD/CD intake
[10] = five-intake LD/CD 500/125 mg vs four-intake LD/CD 400/100 mg plus opicapone 50 mg, fourth LD/CD intake
[11] = five-intake LD/CD 500/125 mg vs four-intake LD/CD 400/100 mg plus opicapone 50 mg
[12] = five-intake LD/CD 500/125 mg vs four-intake LD/CD 400/100 mg plus opicapone 50 mg, second LD/CD intake
[13] = five-intake LD/CD 500/125 mg vs four-intake LD/CD 400/100 mg plus opicapone 50 mg, third LD/CD intake
[14] = five-intake levodopa/carbidopa 500/125 mg vs five-intake levodopa/carbidopa 400/100 mg plus opicapone 50 mg
[15] = five-intake levodopa/carbidopa 500/125 mg vs four-intake levodopa/carbidopa 400/100 mg plus opicapone 50 mg
[16] = 5-intake LD/CD 500/125mg vs 4-intake LD/CD 400/100mg plus OPC 50mg, 1st LD/CD intake, mean
[17] = 5-intake LD/CD 500/125mg vs 4-intake LD/CD 400/100mg plus OPC 50mg, 2nd LD/CD intake, mean
[18] = 5-intake LD/CD 500/125mg vs 4-intake LD/CD 400/100mg plus OPC 50mg, 3rd LD/CD intake, mean
[19] = 5-intake LD/CD 500/125mg vs 4-intake LD/CD 400/100mg plus OPC 50mg, 4th LD/CD intake, mean
[20] = 5-intake LD/CD 500/125mg vs 4-intake LD/CD 400/100mg plus OPC 50mg
[21] = 5-intake LD/CD 500/125mg vs 5-intake LD/CD 400/100mg plus OPC 50mg, 1st LD/CD intake, mean
[22] = 5-intake LD/CD 500/125mg vs 5-intake LD/CD 400/100mg plus OPC 50mg, 2nd LD/CD intake, mean
[23] = 5-intake LD/CD 500/125mg vs 5-intake LD/CD 400/100mg plus OPC 50mg, 3rd LD/CD intake, mean
[24] = 5-intake LD/CD 500/125mg vs 5-intake LD/CD 400/100mg plus OPC 50mg, 4th LD/CD intake, mean
[25] = 5-intake LD/CD 500/125mg vs 5-intake LD/CD 400/100mg plus OPC 50mg

Substance: levodopa/carbidopa [LD/CD]
- Levodopa AUCτ [1, 4]: 1788^b h · ng/mL
- Levodopa Cavg [1, 4]: 596^b ng/mL
- Levodopa Cmax [1, 4]: 1356 ng/mL
- Levodopa Cmin [1, 4]: 18.1 ng/mL
- Levodopa tmax [1, 4]: 0.5 h
- Levodopa AUCτ [1, 5]: 2871^d h · ng/mL
- Levodopa Cavg [1, 5]: 957^d ng/mL
- Levodopa Cmax [1, 5]: 1540 ng/mL
- Levodopa Cmin [1, 5]: 455 ng/mL
- Levodopa tmax [1, 5]: 1.5 h
- Levodopa Cmax (over all intakes of the 12-hour pharmacokinetics; Cmax,max) [1, 6]: 1999 (26.3) ng/mL
- Levodopa Cmin (over all intakes, excluding first predose; Cmin,min) [1, 6]: 267.0 (82.9) ng/mL
- Levodopa AUCτ [1, 7]: 2269^b h · ng/mL
- Levodopa Cavg [1, 7]: 756^b ng/mL
- Levodopa Cmax [1, 7]: 1466 ng/mL
- Levodopa Cmin [1, 7]: 283 ng/mL
- Levodopa tmax [1, 7]: 1.0 h
- Levodopa AUCτ [1, 8]: 2871^d h · ng/mL
- Levodopa Cavg [1, 8]: 957^d ng/mL
- Levodopa Cmax [1, 8]: 1530 ng/mL
- Levodopa Cmin [1, 8]: 365 ng/mL
- Levodopa tmax [1, 8]: 0.5 h
- Levodopa AUCτ [1, 9]: 2076 ng·h/mL
- Levodopa Cavg [1, 9]: 692 ng/mL
- Levodopa Cmax [1, 9]: 1393 ng/mL
- Levodopa Cmin [1, 9]: 18.6 ng/mL
- Levodopa tmax [1, 9]: 0.75 h
- Levodopa AUCτ [1, 10]: 3414^d h · ng/mL
- Levodopa Cavg [1, 10]: 1138^d ng/mL
- Levodopa Cmax [1, 10]: 1852 ng/mL
- Levodopa Cmin [1, 10]: 559 ng/mL
- Levodopa tmax [1, 10]: 1.5 h
- Levodopa Cmax (over all intakes of the 12-hour pharmacokinetics; Cmax,max) [1, 11]: 2130 (25.8) ng/mL
- Levodopa Cmin (over all intakes, excluding first predose; Cmin,min) [1, 11]: 264.5 (32.8) ng/mL
- Levodopa AUCτ [1, 12]: 2637^c h · ng/mL
- Levodopa Cavg [1, 12]: 879^c ng/mL
- Levodopa Cmax [1, 12]: 1751 ng/mL
- Levodopa Cmin [1, 12]: 266 ng/mL
- Levodopa tmax [1, 12]: 1.5 h
- Levodopa AUCτ [1, 13]: 2850^f h · ng/mL
- Levodopa Cavg [1, 13]: 950^f ng/mL
- Levodopa Cmax [1, 13]: 1310 ng/mL
- Levodopa Cmin [1, 13]: 403 ng/mL
- Levodopa tmax [1, 13]: 1.5 h
- Levodopa Cmin,min, geometric mean (90% CI) [1, 14]: 218.9 (156.1, 307.0) ng/mL
- Levodopa Cmax,max, geometric mean (90% CI) [1, 14]: 1931 (1667, 2237) ng/mL
- Levodopa Cmin,min, geometric mean (90% CI) [1, 15]: 252.2 (211.4, 301.0) ng/mL
- Levodopa Cmax,max, geometric mean (90% CI) [1, 15]: 2059 (1782, 2380) ng/mL
- 3-O-methyldopa Cmax,max, Geometric Mean (90% CI) ([2]; 5-intake LD/CD 500/125mg vs 4-intake LD/CD 400/100mg +OPC 50mg): 4264 (3631, 5006) ng/mL
- 3-O-methyldopa AUCτ [2, 16]: 10068^a h*ng/mL
- 3-O-methyldopa Cmax [2, 16]: 3453 ng/mL
- 3-O-methyldopa Cmin [2, 16]: 3021 ng/mL
- 3-O-methyldopa tmax ([2]; 5-intake LD/CD 500/125mg vs 4-intake LD/CD 400/100mg plus OPC 50mg, 1st LD/CD intake): 1.75 h
- 3-O-methyldopa Cmax [2, 17]: 3619 ng/mL
- 3-O-methyldopa Cmin [2, 17]: 3077 ng/mL
- 3-O-methyldopa tmax ([2]; 5-intake LD/CD 500/125mg vs 4-intake LD/CD 400/100mg plus OPC 50mg, 2nd LD/CD intake): 2.5 h
- 3-O-methyldopa AUCτ [2, 18]: 14278^b h*ng/mL
- 3-O-methyldopa Cmax [2, 18]: 4011 ng/mL
- 3-O-methyldopa Cmin [2, 18]: 3437 ng/mL
- 3-O-methyldopa tmax ([2]; 5-intake LD/CD 500/125mg vs 4-intake LD/CD 400/100mg plus OPC 50mg, 3rd LD/CD intake): 2.71 h
- 3-O-methyldopa AUCτ ([2]; 5-intake LD/CD 500/125mg vs 4-intake LD/CD 400/100mg plus OPC 50mg, 4th LD/CD intake, 1 patient): 13519^c h*ng/mL
- 3-O-methyldopa Cmax [2, 19]: 4435 ng/mL
- 3-O-methyldopa Cmin [2, 19]: 3766 ng/mL
- 3-O-methyldopa tmax ([2]; 5-intake LD/CD 500/125mg vs 4-intake LD/CD 400/100mg plus OPC 50mg, 4th LD/CD intake): 2.5 h
- 3-O-methyldopa Cmax,max [2, 20]: 4447 (29.2) ng/mL
- 3-O-methyldopa Cmax,max, Geometric Mean (90% CI) ([2]; 5-intake LD/CD 500/125mg vs 5-intake LD/CD 400/100mg +OPC 50mg): 4201 (3733, 4727) ng/mL
- 3-O-methyldopa AUCτ [2, 21]: 8991^g h*ng/mL
- 3-O-methyldopa Cmax [2, 21]: 3191 ng/mL
- 3-O-methyldopa Cmin [2, 21]: 2868 ng/mL
- 3-O-methyldopa tmax ([2]; 5-intake LD/CD 500/125mg vs 5-intake LD/CD 400/100mg plus OPC 50mg, 1st LD/CD intake): 1.5 h
- 3-O-methyldopa AUCτ [2, 22]: 9002^d h*ng/mL
- 3-O-methyldopa Cmax [2, 22]: 3406 ng/mL
- 3-O-methyldopa Cmin [2, 22]: 2907 ng/mL
- 3-O-methyldopa tmax ([2]; 5-intake LD/CD 500/125mg vs 5-intake LD/CD 400/100mg plus OPC 50mg, 2nd LD/CD intake): 2.5 h
- 3-O-methyldopa AUCτ ([2]; 5-intake LD/CD 500/125mg vs 5-intake LD/CD 400/100mg plus OPC 50mg, 3rd LD/CD intake, 1 patient): 11951^c h*ng/mL
- 3-O-methyldopa Cmax [2, 23]: 3875 ng/mL
- 3-O-methyldopa Cmin [2, 23]: 3151 ng/mL
- 3-O-methyldopa tmax ([2]; 5-intake LD/CD 500/125mg vs 5-intake LD/CD 400/100mg plus OPC 50mg, 3rd LD/CD intake): 2.5 h
- 3-O-methyldopa Cmax [2, 24]: 4170 ng/mL
- 3-O-methyldopa Cmin [2, 24]: 3586 ng/mL
- 3-O-methyldopa tmax ([2]; 5-intake LD/CD 500/125mg vs 5-intake LD/CD 400/100mg plus OPC 50mg, 4th LD/CD intake): 2.71 h
- 3-O-methyldopa Cmax,max [2, 25]: 4300 (22.4) ng/mL
- ON-time With Non-Troublesome Dyskinesia [3, 20]: 86.7 (72.6) min
- ON-time With Troublesome Dyskinesia [3, 20]: 35.0 (26.5) min
- ON-time Without Dyskinesia [3, 20]: 411.7 (122.6) min
- Total OFF-time [3, 20]: 442.50 (96.3) min
- Total ON-time [3, 20]: 488.3 (110.9) min
- ON-time With Non-Troublesome Dyskinesia [3, 25]: 66.4 (48.0) min
- ON-time With Troublesome Dyskinesia [3, 25]: 20.0 (24.49) min
- ON-time Without Dyskinesia [3, 25]: 446.7 (110.0) min
- Total OFF-time [3, 25]: 431.70 (100.3) min
- Total ON-time [3, 25]: 519.2 (91.2) min
- 24-h total off time, geometric mean (90% CI) [3, 14]: 420.3 (369.8, 477.6) min
- 24-h total on time, geometric mean (90% CI) [3, 14]: 512.5 (470.9, 557.9) min
- 24-h total off time, geometric mean (90% CI) [3, 15]: 433.0 (386.4, 485.0) min
- 24-h total on time, geometric mean (90% CI) [3, 15]: 476.5 (421.9, 538.2) min
